Experimental data as given in ChEMBL document CHEMBL1833945, “Synthesis and anticonvulsant activity of new N-Mannich bases derived from 5-cyclopropyl-5-phenyl- and 5-cyclopropyl-5-(4-chlorophenyl)-imidazolidine-2,4-diones” (Bioorg Med Chem, 2011).
The source made the active and inactive calls. The calls are words filed in the database; no cut-off is given here.

What was measured:
[1] = tested on: Mus musculus; assay: Anticonvulsant activity in ip dosed CF1 albino mouse assessed as protection against subcutaneous pentylenetetrazole-induced seizures after 4 hrs; assay type: functional; conditions: read-out: MED
[2] = tested on: Rattus norvegicus; assay: Neurotoxicity in Sprague-Dawley albino rat assessed as motor impairment at 50 mg/kg, po after 2 hrs by rotarod test; assay type: toxicity, organism-based; design: dose 50 mg/kg, route oral; conditions: in vivo
[3] = tested on: Mus musculus; assay: Anticonvulsant activity in CF1 albino mouse assessed as protection against electrically-induced seizure at 100 mg/kg, ip after 0.25 hrs by 6Hz psychomotor seizure test; assay type: functional, organism-based; design: dose 100 mg/kg
[4] = Lipophilicity, log P of compound; assay type: physicochemical; conditions: octanol/water
[5] = tested on: Mus musculus; assay: Anticonvulsant activity in ip dosed CF1 albino mouse assessed as protection against maximal electroshock-induced seizures after 0.5 hrs; assay type: functional; conditions: read-out: MED
[6] = tested on: Rattus norvegicus; assay: Neurotoxicity in Sprague-Dawley albino rat assessed as motor impairment at 50 mg/kg, po after 1 hrs by rotarod test; assay type: toxicity, organism-based; design: dose 50 mg/kg, route oral; conditions: in vivo
[7] = tested on: Mus musculus; assay: Anticonvulsant activity in ip dosed CF1 albino mouse assessed as protection against subcutaneous pentylenetetrazole-induced seizures after 0.5 hrs; assay type: functional; conditions: read-out: MED
[8] = tested on: Rattus norvegicus; assay: Neurotoxicity in Sprague-Dawley albino rat assessed as motor impairment at 50 mg/kg, po after 4 hrs by rotarod test; assay type: toxicity, organism-based; design: dose 50 mg/kg, route oral; conditions: in vivo
[9] = tested on: Rattus norvegicus; assay: Anticonvulsant activity in Sprague-Dawley albino rat assessed as protection against subcutaneous pentylenetetrazole-induced seizures at 50 mg/kg, po after 0.25 hrs; assay type: functional, organism-based; design: dose 50 mg/kg
[10] = tested on: Mus musculus; assay: Anticonvulsant activity in ip dosed CF1 albino mouse assessed as protection against maximal electroshock-induced seizures after 4 hrs; assay type: functional; conditions: read-out: MED
[11] = tested on: Rattus norvegicus; assay: Neurotoxicity in Sprague-Dawley albino rat assessed as motor impairment at 50 mg/kg, po after 0.25 hrs by rotarod test; assay type: toxicity, organism-based; design: dose 50 mg/kg, route oral; conditions: in vivo
[12] = tested on: Rattus norvegicus; assay: Neurotoxicity in Sprague-Dawley albino rat assessed as motor impairment at 50 mg/kg, po after 0.5 hrs by rotarod test; assay type: toxicity, organism-based; design: dose 50 mg/kg, route oral; conditions: in vivo
[13] = tested on: Mus musculus; assay: Neurotoxicity in CF1 albino mouse assessed as minimum dose causing loss of righting reflex at 300 mg/kg, ip after 4 hrs by rotarod test; assay type: toxicity, organism-based; design: dose 300 mg/kg, route intraperitoneal; conditions: in vivo
[14] = tested on: Mus musculus; assay: Neurotoxicity in CF1 albino mouse assessed as loss of rotard grasping at 300 mg/kg, ip after 0.5 hrs by rotarod test; assay type: toxicity, organism-based; design: dose 300 mg/kg, route intraperitoneal; conditions: in vivo
[15] = tested on: Mus musculus; assay: Anticonvulsant activity in CF1 albino mouse assessed as protection against maximal electroshock-induced seizures at 300 mg/kg, ip after 0.5 hrs; assay type: functional, organism-based; design: dose 300 mg/kg
[16] = tested on: Mus musculus; assay: Neurotoxicity in CF1 albino mouse assessed as impair in motor coordination at 300 mg/kg, ip after 0.5 hrs by rotarod test; assay type: toxicity, organism-based; design: dose 300 mg/kg, route intraperitoneal; conditions: in vivo
[17] = tested on: Mus musculus; assay: Neurotoxicity in CF1 albino mouse assessed as impair in motor coordination at 300 mg/kg, ip after 4 hrs by rotarod test; assay type: toxicity, organism-based; design: dose 300 mg/kg, route intraperitoneal; conditions: in vivo
[18] = tested on: Mus musculus; assay: Anticonvulsant activity in CF1 albino mouse assessed as protection against subcutaneous pentylenetetrazole-induced seizures at 300 mg/kg, […] after 4 hrs; assay type: functional, organism-based; design: dose 300 mg/kg
[19] = tested on: Rattus norvegicus; assay: Neurotoxicity in Sprague-Dawley albino rat assessed as motor impairment at 30 mg/kg, po after 2 hrs by rotarod test; assay type: toxicity, organism-based; design: dose 30 mg/kg, route oral; conditions: in vivo
[20] = tested on: Rattus norvegicus; assay: Anticonvulsant activity in Sprague-Dawley albino rat assessed as protection against maximal electroshock-induced seizures at 30 mg/kg, po after 4 hrs; assay type: functional, organism-based; design: dose 30 mg/kg
[21] = tested on: Rattus norvegicus; assay: Neurotoxicity in Sprague-Dawley albino rat assessed as motor impairment at 30 mg/kg, po after 4 hrs by rotarod test; assay type: toxicity, organism-based; design: dose 30 mg/kg, route oral; conditions: in vivo
[22] = species: Rattus norvegicus; assay: Protective index, ratio of TD50 for neurotoxicity in Sprague-Dawley albino rat to ED50 for inhibition of maximal electroshock-induced seizures in Sprague-Dawley albino rat; assay type: functional
[23] = tested on: Rattus norvegicus; assay: Anticonvulsant activity in po dosed Sprague-Dawley albino rat assessed as time to peak effect; assay type: functional
[24] = tested on: Rattus norvegicus; assay: Anticonvulsant activity in Sprague-Dawley albino rat assessed as protection against maximal electroshock-induced seizures at 30 mg/kg, po after 0.5 hrs; assay type: functional, organism-based; design: dose 30 mg/kg
[25] = tested on: Mus musculus; assay: Toxicity in subcutaneous pentylenetetrazole-induced CF1 albino mouse assessed as myoclonic jerks at 300 mg/kg, ip after 0.5 hrs; assay type: organism-based; design: dose 300 mg/kg; conditions: in vivo, sc
[26] = tested on: Rattus norvegicus; assay: Neurotoxicity in Sprague-Dawley albino rat assessed as motor impairment at 30 mg/kg, po after 0.5 hrs by rotarod test; assay type: toxicity, organism-based; design: dose 30 mg/kg, route oral; conditions: in vivo
[27] = tested on: Rattus norvegicus; assay: Neurotoxicity in Sprague-Dawley albino rat assessed as motor impairment at 30 mg/kg, po after 1 hrs by rotarod test; assay type: toxicity, organism-based; design: dose 30 mg/kg, route oral; conditions: in vivo
[28] = tested on: Mus musculus; assay: Toxicity in subcutaneous pentylenetetrazole-induced CF1 albino mouse assessed as myoclonic jerks at 300 mg/kg, ip after 4 hrs; assay type: organism-based; design: dose 300 mg/kg; conditions: in vivo, sc
[29] = Neurotoxicity in oral dosed Sprague-Dawley albino rat assessed as motor impairment by rotarod test; assay type: toxicity, organism-based; conditions: in vivo
[30] = tested on: Rattus norvegicus; assay: Anticonvulsant activity in Sprague-Dawley albino rat assessed as protection against maximal electroshock-induced seizures at 30 mg/kg, po after 0.25 hrs; assay type: functional, organism-based; design: dose 30 mg/kg
[31] = tested on: Rattus norvegicus; assay: Neurotoxicity in Sprague-Dawley albino rat assessed as motor impairment at 30 mg/kg, po after 0.25 hrs by rotarod test; assay type: toxicity, organism-based; design: dose 30 mg/kg, route oral; conditions: in vivo
[32] = tested on: Rattus norvegicus; assay: Anticonvulsant activity in po dosed Sprague-Dawley albino rat assessed as protection against maximal electroshock-induced seizures; assay type: functional
[33] = tested on: Mus musculus; assay: Neurotoxicity in CF1 albino mouse assessed as loss of rotard grasping at 300 mg/kg, ip after 4 hrs by rotarod test; assay type: toxicity, organism-based; design: dose 300 mg/kg, route intraperitoneal; conditions: in vivo
[34] = tested on: Mus musculus; assay: Toxicity in subcutaneous pentylenetetrazole-induced CF1 albino mouse assessed as myoclonic jerks at 100 mg/kg, ip after 0.5 hrs; assay type: organism-based; design: dose 100 mg/kg; conditions: in vivo, sc

SMILES | logP [4] | minimal effective dose [5] [mg/kg] | minimal effective dose [7] [mg/kg] | minimal effective dose [10] [mg/kg] | Activity [14] | Activity [15] | Activity [16] | Activity [17] | Activity [18] | further results
O=C1NC(c2ccc(Cl)cc2)(C2CC2)C(=O)N1CN1CCOCC1 (configuration not stated) | 2 | 100 | 100 | 100 | Toxic |  |  |  |  | minimal effective dose [1]: 300 mg/kg; Activity [2]: Non-toxic; Activity [3]: inactive; Activity [6]: Non-toxic; Activity [8]: Non-toxic; Activity [9]: inactive; Activity [11]: Non-toxic; Activity [12]: Non-toxic; Activity [13]: Toxic
O=C1NC(c2ccc(Cl)cc2)(C2CC2)C(=O)N1CN1CCc2ccccc2C1 (configuration not stated) | 3.71 |  |  | 300 |  | inactive | Non-toxic | Non-toxic | inactive | 
O=C(OCc1ccccc1)N1CCN(CN2C(=O)NC(c3ccccc3)(C3CC3)C2=O)CC1 (configuration not stated) | 2.92 | 300 |  | 100 |  |  | Non-toxic | Non-toxic |  | Activity [19]: Non-toxic; Activity [20]: Active; Activity [21]: Non-toxic; PI [22]: >5.98; Time [23]: 6 h; Activity [24]: inactive; Activity [25]: Toxic; Activity [26]: Non-toxic; Activity [27]: Non-toxic; Activity [28]: Toxic; TD50 [29]: > 60 mg/kg; Activity [30]: inactive; Activity [31]: Non-toxic; ED50 [32]: 10 mg/kg
CC(c1ccccc1)N1CCN(CN2C(=O)NC(c3ccc(Cl)cc3)(C3CC3)C2=O)CC1 (configuration not stated) | 3.9 | 300 |  | 300 | Toxic |  |  | Non-toxic | inactive | 
O=C1NC(c2ccccc2)(C2CC2)C(=O)N1CN1CCN(C/C=C/c2ccccc2)CC1 (configuration not stated) | 3.3 | 100 | 100 | 100 | Toxic |  |  |  |  | minimal effective dose [1]: 300 mg/kg; Activity [13]: Toxic
O=C1NC(c2ccccc2)(C2CC2)C(=O)N1CN1CCN(c2ccccc2)CC1 (configuration not stated) |  |  | 100 | 100 |  | inactive | Non-toxic | Non-toxic | inactive | 
O=C1NC(c2ccc(Cl)cc2)(C2CC2)C(=O)N1CN1CCN(c2ccccc2)CC1 (configuration not stated) |  |  |  | 100 |  | inactive | Non-toxic |  | inactive | Activity [33]: Toxic
O=C(c1ccccc1)N1CCN(CN2C(=O)NC(c3ccccc3)(C3CC3)C2=O)CC1 (configuration not stated) | 2.17 | 100 |  | 100 |  |  | Non-toxic | Non-toxic |  | Activity [19]: Non-toxic; Activity [21]: Non-toxic; Activity [34]: Toxic; Activity [24]: inactive; Activity [26]: Non-toxic; Activity [27]: Non-toxic; Activity [28]: Toxic; Activity [30]: inactive; Activity [31]: Non-toxic
